For the assay, the target named is human M4 receptor (Homo sapiens (Human), UniProt P08173). The assay can be described thus: Radioligand (tritiated N-methylscopolamine) binding assay, M4. The note with it: Ki against the M4 receptor; membranes from CHO cells expressing human M4; tritiated N-methylscopolamine 1.5 nM; read-out: Ki. The gist of the method: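 Membranes from CHO cells expressing the receptor were incubated with 1.5 nM radioligand and twelve compound concentrations (10 μM to […]) for 90 min at 37 °C in 50 mM HEPES, 100 mM NaCl, 5 mM MgCl2, 1 mM EDTA, pH 7.4. Bound radioligand was collected by filtration and counted, and Ki was derived from inhibition.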
Sequence of human M4 receptor (P08173 whole entry): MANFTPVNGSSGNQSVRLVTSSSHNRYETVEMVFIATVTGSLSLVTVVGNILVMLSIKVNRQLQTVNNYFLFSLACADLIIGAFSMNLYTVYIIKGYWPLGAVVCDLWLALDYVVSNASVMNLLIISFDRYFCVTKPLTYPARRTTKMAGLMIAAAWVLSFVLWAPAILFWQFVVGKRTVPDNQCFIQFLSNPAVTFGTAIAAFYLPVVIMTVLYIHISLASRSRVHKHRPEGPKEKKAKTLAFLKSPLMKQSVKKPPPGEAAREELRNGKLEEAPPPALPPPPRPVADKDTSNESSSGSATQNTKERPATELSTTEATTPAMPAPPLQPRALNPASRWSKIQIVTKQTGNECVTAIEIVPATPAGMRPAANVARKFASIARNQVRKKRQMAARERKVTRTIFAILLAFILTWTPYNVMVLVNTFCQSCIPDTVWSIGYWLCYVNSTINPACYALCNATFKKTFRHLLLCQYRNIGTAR

The term Ki denotes a dissociation constant, usually derived from enzyme kinetics or from competition with a known ligand.

`O=C(NCCC1CCN(Cc2ccccc2O)CC1)c1ccc(Oc2ccccc2)cc1` [11-5, N-(2-{1-[(2-hydroxyphenyl)methyl]piperidin-4-yl}ethyl)-4-phenoxybenzamide]: the Ki was in the range of 100 to 1000 nM. For `Cc1cc(CN2CCC(CCNC(=O)N3[C@H](C)CN(c4cnc(C(F)(F)F)nc4)C[C@@H]3C)CC2)ccc1O` [6-49, (2R,6S)-N-(2-{1-[(4-hydroxy-3-methylphenyl)methyl]piperidin-4-yl}ethyl)-2,6-dimethyl-4-[2-(trifluoromethyl)pyrimidin-5-yl]piperazine-1-carboxamide], the Ki lay within 100 to 1000 nM. As to `COc1ccccc1-c1cc2ncc(C(=O)NCCC3CCN(Cc4ccccc4)CC3)c(C)n2n1` [18-9], the Ki lay within 10 to 100 nM. As to `O=C(NCCC1CCN(Cc2ccccc2)CC1)N1CCC(c2csc3ccccc23)CC1` [8-10, 4-(1-benzothiophen-3-yl)-N-[2-(1-benzylpiperidin-4-yl)ethyl]piperidine-1-carboxamide], the Ki fell in the range of 10 to 100 nM. Regarding `C[C@@H]1CN(c2ncc(C(F)(F)F)cn2)CCN1C(=O)NCCC1CCN(Cc2ccccc2F)CC1` [6-38, (2R)-N-(2-{1-[(2-fluorophenyl)methyl]piperidin-4-yl}ethyl)-2-methyl-4-[5-(trifluoromethyl)pyrimidin-2-yl]piperazine-1-carboxamide], the Ki was 10 to 100 nM.

As to `O=C(NCCC1CCN(Cc2ccccc2)CC1)C1CCN(c2ccc(OC(F)(F)F)cn2)CC1` [10-1, N-[2-(1-benzylpiperidin-4-yl)ethyl]-1-[5-(trifluoromethoxy)pyridin-2-yl]piperidine-4-carboxamide], the Ki was in the range of 10 to 100 nM.

Turning to `COc1ccc(N2CCC(C(=O)NCCC3CCN(Cc4ccccc4)CC3)CC2)nc1` [10-28, N-[2-(1-benzylpiperidin-4-yl)ethyl]-1-(5-methoxypyridin-2-yl)piperidine-4-carboxamide], the Ki was 100 to 1000 nM.

As to `O=C(NCCC1CCN(Cc2ccccc2)CC1)N1CCC(O)(c2cccc(C(F)(F)F)c2)CC1` [8-19, N-[2-(1-benzylpiperidin-4-yl)ethyl]-4-hydroxy-4-[3-(trifluoromethyl)phenyl]piperidine-1-carboxamide], the Ki lay in the range of 10 to 100 nM. With `Cc1c(C(=O)NCCC2CCN(Cc3cccnc3)CC2)cnc2cc(-c3cccc(C(F)(F)F)c3)nn12` [19-1, 7-methyl-N-{2-[1-(pyridin-3-ylmethyl)piperidin-4-yl]ethyl}-2-[3-(trifluoromethyl)phenyl]pyrazolo[1,5-a]pyrimidine-6-carboxamide], the Ki was in the range of 100 to 1000 nM. Regarding `O=C(NCCC1CCN(Cc2cccnc2F)CC1)c1ccc(Oc2ccccc2)cc1` [11-2, N-(2-{1-[(2-fluoropyridin-3-yl)methyl]piperidin-4-yl}ethyl)-4-phenoxybenzamide], the Ki fell in the range of 10 to 100 nM.

Consider `COc1nc(N2CCN(C(=O)NCCC3CCN(Cc4ccccc4)CC3)[C@H](C)C2)ncc1C#N` [5-16, (2R)-N-[2-(1-benzylpiperidin-4-yl)ethyl]-4-(5-cyano-4-methoxypyrimidin-2-yl)-2-methylpiperazine-1-carboxamide], for which the Ki is 10 to 100 nM. On to `C[C@@H]1CN(c2ccc(OC(F)(F)F)c(C#N)c2)CCN1C(=O)NCCC1CCN(Cc2ccc(I)cc2)CC1` [3-7, (2R)-4-[3-cyano-4-(trifluoromethoxy)phenyl]-N-(2-{1-[(4-iodophenyl)methyl]piperidin-4-yl}ethyl)-2-methylpiperazine-1-carboxamide], for which the Ki was 10 to 100 nM. For `N#Cc1ccc(N2CCC(C(=O)NCCC3CCN(CC4CCCCC4)CC3)CC2)nc1` [11-8, 1-(5-cyanopyridin-2-yl)-N-{2-[1-(cyclohexylmethyl)piperidin-4-yl]ethyl}piperidine-4-carboxamide] the value was 100 to 1000 nM; for `O=C(NCCC1CCN(Cc2ccccc2)CC1)C1CCN(c2ccc(OC(F)(F)F)cc2F)CC1` [10-37, N-[2-(1-benzylpiperidin-4-yl)ethyl]-1-[2-fluoro-4-(trifluoromethoxy)phenyl]piperidine-4-carboxamide], 10 to 100 nM. Consider `O=C(NCCN[C@@H]1CCN(Cc2ccccc2)C1)C1CCN(c2cccc(OC(F)(F)F)c2)CC1` [9-54, N-(2-{[(3R)-1-benzylpyrrolidin-3-yl]amino}ethyl)-1-[3-(trifluoromethoxy)phenyl]piperidine-4-carboxamide], for which the Ki is 100 to 1000 nM. Turning to `COc1ccc(CN2CCC(CCNC(=O)N3[C@H](C)CN(c4ncc(C#N)cn4)C[C@@H]3C)CC2)cc1` [6-65, (2R,6S)-4-(5-cyanopyrimidin-2-yl)-N-(2-{1-[(4-methoxyphenyl)-methyl]piperidin-4-yl}ethyl)-2,6-dimethylpiperazine-1-carboxamide], the Ki was in the range of 10 to 100 nM. For the molecule `O=C(NCCC1CCN(Cc2ccccc2)CC1)N1CCN(c2cccc(OC(F)(F)F)c2)CC1` [8-2, N-[2-(1-benzylpiperidin-4-yl)ethyl]-4-[3-(trifluoromethoxy)phenyl]piperazine-1-carboxamide], the Ki is 10 to 100 nM. Consider `O=C(NCCC1CCN(Cc2ccccc2)CC1)C1(F)CCN(c2ccccc2OC(F)(F)F)CC1` [10-17, N-[2-(1-benzylpiperidin-4-yl)ethyl]-4-fluoro-1-[2-(trifluoromethoxy)phenyl]piperidine-4-carboxamide], for which the Ki was in the range of 100 to 1000 nM. With `O=C(NCCC1CCN(Cc2cccc3c2OCCO3)CC1)c1ccc(Oc2ccccc2)cc1` [11-18, N-{2-[1-(2,3-dihydro-1,4-benzodioxin-5-ylmethyl)piperidin-4-yl]ethyl}-4-phenoxybenzamide], the Ki is 100 to 1000 nM. Consider `CN(CCC1CCN(Cc2ccccc2)CC1)C(=O)C1CCN(c2ccc(OC(F)(F)F)cc2)CC1` [9-34, N-[2-(1-benzylpiperidin-4-yl)ethyl]-N-methyl-1-[4-(trifluoromethoxy)phenyl]piperidine-4-carboxamide], for which the Ki lay within 100 to 1000 nM.

In the case of `O=C(NCCC1CCN(Cc2ccccc2)CC1)C1CCN(c2ccc(C(F)(F)F)nc2)CC1` [10-68, N-[2-(1-benzylpiperidin-4-yl)ethyl]-1-[6-(trifluoromethyl)pyridin-3-yl]piperidine-4-carboxamide], the Ki was in the range of 100 to 1000 nM.

`C[C@@H]1CN(c2cc(F)c(F)c(F)c2)CCN1C(=O)NCCC1CCN(Cc2cccc(F)c2)CC1` [6-10, (2R)-N-(2-{1-[(3-fluorophenyl)methyl]piperidin-4-yl}ethyl)-2-methyl-4-(3,4,5-trifluorophenyl)piperazine-1-carboxamide]: the Ki lay in the range of 10 to 100 nM. For the molecule `Nc1nc(N2CCN(C(=O)NCCC3CCN(Cc4ccccc4)CC3)CC2)ncc1Cl` [5-33, 4-(4-amino-5-chloropyrimidin-2-yl)-N-[2-(1-benzylpiperidin-4-yl)ethyl]piperazine-1-carboxamide], the Ki lay in the range of 10 to 100 nM. With `C[C@@H]1CN(c2cnc(C(F)(F)F)nc2)C[C@H](C)N1C(=O)NCCC1CCN(Cc2ccc(O)cc2)CC1` [6-54, (2R,6S)-N-(2-{1-[(4-hydroxyphenyl)methyl]piperidin-4-yl}ethyl)-2,6-dimethyl-4-[2-(trifluoromethyl)pyrimidin-5-yl]piperazine-1-carboxamide], the Ki is 10 to 100 nM. For `O=C(NCCC1CCN(Cc2ccccc2)CC1)N1CCC(c2ccccc2)CC1` [8-38, N-[2-(1-benzylpiperidin-4-yl)ethyl]-4-phenylpiperidine-1-carboxamide] the value was 100 to 1000 nM.

The values above are taken from patent US11033539B2, “Compounds of formulas (VII), (VIII), (IX), (XI), (XII), (XIII), and (XIV) as muscarinic receptor 4(M4) antagonists for treating neurological diseases” (Neurocrine Biosciences, Inc., priority 2015, dated 2021).
